From patent US5254801A, “Heterologous dominant conditional lethal gene which is a phosphonate monoester hydrolase and use thereof in plants” (Monsanto Company, priority 1990, dated 1993) come the findings set out here.

Entries after “also recorded” stand apart in the source; their conditions may differ.

For the assay, the target named is T1, phosphonate monoester hydrolase (PEH) (Trinickia caryophylli, UniProt Q45087).
T1 sequence (Q45087 1-514): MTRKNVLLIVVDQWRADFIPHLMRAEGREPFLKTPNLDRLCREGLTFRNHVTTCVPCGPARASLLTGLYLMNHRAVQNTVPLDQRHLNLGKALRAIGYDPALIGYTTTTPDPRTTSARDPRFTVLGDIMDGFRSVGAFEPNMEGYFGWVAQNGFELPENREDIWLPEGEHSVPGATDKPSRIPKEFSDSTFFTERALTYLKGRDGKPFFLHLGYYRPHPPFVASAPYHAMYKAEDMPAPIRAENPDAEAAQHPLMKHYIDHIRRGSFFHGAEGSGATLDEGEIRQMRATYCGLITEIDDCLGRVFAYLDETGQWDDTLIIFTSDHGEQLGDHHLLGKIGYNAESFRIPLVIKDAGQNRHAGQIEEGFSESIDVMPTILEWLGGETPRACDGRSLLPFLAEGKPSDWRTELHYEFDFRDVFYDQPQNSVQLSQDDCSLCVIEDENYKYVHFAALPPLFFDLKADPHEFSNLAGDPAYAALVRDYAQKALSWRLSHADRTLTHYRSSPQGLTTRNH
Description: Hydrolysis of protoxin to glyphosate by phosphonate monoester hydrolase. The assay is classed as biochemical, Pseudomonas caryophilli PG2982. Here is the method: The critical tests for a prophytotoxin to be used in negative selection, cell ablation and as a gametocide are that the compound is non-phytotoxic per se but can be hydrolyzed into a phytotoxin by the phosphonate monoester hydrolase protein. The most general and specific method to determine if a protoxin is hydrolyzed to a toxic form of glyphosate is a HPLC assay. The compounds are dissolved at 100 mM concentration in a suitable buffer such as 10 mM TAPS, (N-Tris(hydroxymethyl)methyl-2-aminopropane sulfonic acid) pH 9.0. Triplicate samples (0.1 ml) of the compound are then diluted with 0.9 ml of 10 mM TAPS, pH 9.0 and with 0.9 ml 10 mM TAPS, pH 9.0 plus one unit (1 μmol/min) of enzyme. After 24 hour incubation at 25° C., the samples are injected onto a HPLC column for glyphosate analysis. […] The protoxin and glyphosate are separated on an anion exchange column. the glyphosate is oxidized as it elutes in the presence of bleach and is then derivatized by o-pthaldehyde to a fluorescent derivative which can be quantitatively measured by a fluorescence monitor. […] After two days, the plant is dissected into individual tissues and the amount of protoxin in each tissue determined. […] The tissue samples were then combusted and the amount of radiolabelled compound in each tissue determined by scintillation counting. […]

In the case of `O=C(O)CNCP(=O)(O)OCC(O)CO` (stereo not shown) [glyceryl glyphosate, glycine, N-([hydroxy (2,3 dihydroxy propoxy)phosphonyl]methyl)], the “Substrate for / hydrolysis by phosphonate monoester hydrolase” value is “is a substrate for the phosphonate monoester hydrolases; also recorded: hydrolyze the glyceryl glyphosate into glycerol and glyphosate”.
